In patent US7601716B2, “Pyridopyrazines and derivatives thereof as ALK and c-Met inhibitors” (Cephalon, Inc., priority 2006, dated 2009):

Assays:
[1] = target: T1, c-Met (cytoplasmic domain) (Homo sapiens, UniProt P08581); experiment: c-Met Kinase Assay (ELISA/TRF, PLC-γ substrate); assay type: biochemical; conditions: 3 μM ATP (Km level); read-out: c-Met Kinase Inhibition (IC50)
T1 construct: Reactions were initiated with 30 ng/mL c-Met (cytoplasmic domain, Invitrogen Corporation #PV3143); purchased Invitrogen Corporation PV3143
T1 sequence (P08581 956-1390 limits assumed): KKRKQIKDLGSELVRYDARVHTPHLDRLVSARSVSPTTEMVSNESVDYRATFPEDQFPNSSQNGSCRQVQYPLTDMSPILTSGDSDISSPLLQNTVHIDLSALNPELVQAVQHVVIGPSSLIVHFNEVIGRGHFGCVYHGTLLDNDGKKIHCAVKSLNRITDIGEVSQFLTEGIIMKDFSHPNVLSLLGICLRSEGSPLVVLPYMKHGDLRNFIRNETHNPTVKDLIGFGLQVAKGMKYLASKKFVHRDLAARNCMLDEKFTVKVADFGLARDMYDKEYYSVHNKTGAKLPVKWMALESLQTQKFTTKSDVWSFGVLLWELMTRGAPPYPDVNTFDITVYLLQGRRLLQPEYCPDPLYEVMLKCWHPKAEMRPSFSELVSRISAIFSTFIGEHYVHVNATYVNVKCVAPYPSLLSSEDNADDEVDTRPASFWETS
Summary of the method: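 c-Met cytoplasmic domain (30 ng/mL) phosphorylates plate-coated GST–PLC-γ for 15 min at 37 °C. Phosphotyrosine detected with Eu-labeled PT66 antibody by time-resolved fluorescence. IC50 from variable-slope sigmoidal fit of % inhibition vs log concentration.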

[2] = target: baculovirus-expressed ALK (Homo sapiens, UniProt Q9UM73); experiment: ALK Kinase Assay (ELISA/TRF, PLC-γ substrate); assay type: biochemical; conditions: read-out: ALK Kinase Inhibition (IC50); further: 1 µM ATP (Km level)
baculovirus-expressed ALK, sequence (Q9UM73 19-1620): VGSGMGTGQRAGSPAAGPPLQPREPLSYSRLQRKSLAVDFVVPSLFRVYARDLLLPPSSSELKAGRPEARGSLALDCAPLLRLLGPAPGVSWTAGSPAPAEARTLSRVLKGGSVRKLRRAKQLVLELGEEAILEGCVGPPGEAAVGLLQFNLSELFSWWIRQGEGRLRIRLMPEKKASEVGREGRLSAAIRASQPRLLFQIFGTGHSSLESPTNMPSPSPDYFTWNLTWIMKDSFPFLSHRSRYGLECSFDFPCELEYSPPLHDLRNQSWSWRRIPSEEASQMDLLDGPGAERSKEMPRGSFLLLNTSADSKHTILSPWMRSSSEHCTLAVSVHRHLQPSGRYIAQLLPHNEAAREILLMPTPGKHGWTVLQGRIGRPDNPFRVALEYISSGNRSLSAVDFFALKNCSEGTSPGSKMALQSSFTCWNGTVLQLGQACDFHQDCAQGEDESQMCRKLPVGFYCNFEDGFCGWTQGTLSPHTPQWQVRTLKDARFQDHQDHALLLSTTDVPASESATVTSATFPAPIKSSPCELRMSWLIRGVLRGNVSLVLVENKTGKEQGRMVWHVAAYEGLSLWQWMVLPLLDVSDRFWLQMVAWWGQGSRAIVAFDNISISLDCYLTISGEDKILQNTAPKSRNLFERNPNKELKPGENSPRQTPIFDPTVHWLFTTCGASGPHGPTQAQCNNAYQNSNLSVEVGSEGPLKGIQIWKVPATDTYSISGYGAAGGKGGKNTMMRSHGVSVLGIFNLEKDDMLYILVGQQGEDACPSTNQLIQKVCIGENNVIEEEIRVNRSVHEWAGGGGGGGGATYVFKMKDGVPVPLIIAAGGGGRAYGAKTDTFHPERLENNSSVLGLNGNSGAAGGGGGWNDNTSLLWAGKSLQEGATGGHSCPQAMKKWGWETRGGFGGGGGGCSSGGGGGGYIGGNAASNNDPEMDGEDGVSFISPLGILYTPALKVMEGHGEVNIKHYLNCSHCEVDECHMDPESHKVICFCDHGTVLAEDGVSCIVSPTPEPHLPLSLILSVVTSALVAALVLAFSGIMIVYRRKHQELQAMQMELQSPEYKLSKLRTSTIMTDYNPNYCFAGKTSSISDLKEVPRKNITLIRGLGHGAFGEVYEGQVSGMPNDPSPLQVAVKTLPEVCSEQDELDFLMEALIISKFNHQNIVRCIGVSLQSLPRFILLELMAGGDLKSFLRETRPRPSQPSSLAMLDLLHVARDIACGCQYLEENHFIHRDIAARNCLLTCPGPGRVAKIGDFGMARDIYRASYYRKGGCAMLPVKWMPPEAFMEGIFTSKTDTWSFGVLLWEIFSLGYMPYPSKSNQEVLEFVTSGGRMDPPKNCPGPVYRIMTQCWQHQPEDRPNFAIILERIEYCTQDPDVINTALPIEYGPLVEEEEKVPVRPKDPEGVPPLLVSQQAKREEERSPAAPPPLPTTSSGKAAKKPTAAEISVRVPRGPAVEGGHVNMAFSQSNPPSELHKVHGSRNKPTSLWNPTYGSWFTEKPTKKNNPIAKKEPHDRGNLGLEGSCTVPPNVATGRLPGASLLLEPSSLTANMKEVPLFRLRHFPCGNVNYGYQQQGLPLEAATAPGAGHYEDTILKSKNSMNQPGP
Summary of the method: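 An ELISA adapted from a trkA format was used: wells carried GST-fused PLC-γ substrate, and enzyme addition (30 ng/ml ALK) started a 15-minute reaction at 37° C.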

With `CCOC(=O)c1ccc(-c2cnc3c(c2)N(C(=O)c2ccccc2)CCN3)cc1` [Example 44, 4-(1-Benzoyl-1,2,3,4-tetrahydropyrido[2,3-b]pyrazin-7-yl)benzoic acid ethyl ester] the IC50 [1] was 10 to 100 µM, the IC50 [2] was over 100000 nM and the melting point was 177 to 178 °C.

Work on `O=C1CNc2ncc(-c3ccc(NS(=O)(=O)CCN4CCOCC4)cc3)cc2N1Cc1cc(F)ccc1F` [Example 50, 2-Morpholin-4-yl-ethanesulfonic acid{4-[1-(2,5-difluorobenzyl)-2-oxo-1,2,3,4-tetrahydropyrido[2,3-b]pyrazin-7-yl]phenyl}-amide] yielded an IC50 [1] of over 100 µM, an IC50 [2] of 100 to 1000 nM and a melting point of 225 °C.

`CN(C)CCNC(=O)c1ccc(-c2cnc3c(c2)N(C(=O)c2ccccc2)CCN3)cc1` [Example 52, 4-(1-Benzoyl-1,2,3,4-tetrahydropyrido[2,3-b]pyrazin-7-yl)-N-(2-dimethylamino-ethyl)benzamide] showed an IC50 [1] of 10 to 100 µM, an IC50 [2] of 10000 to 100000 nM and a melting point of 145 to 147 °C.

In the case of `CN(C)CCCNC(=O)c1ccc(-c2cnc3c(c2)N(C(=O)c2ccccc2)CCN3)cc1` [Example 53, 4-(1-Benzoyl-1,2,3,4-tetrahydropyrido[2,3-b]pyrazin-7-yl)-N-(3-dimethylamino-propyl)benzamide], the IC50 [1] is reported as 10 to 100 µM, the IC50 [2] is reported as over 100000 nM and the melting point is reported as 94 °C.

Work on `CCOC(=O)c1ccc(-c2cnc3c(c2)N(Cc2cc(F)ccc2F)C(=O)CN3)cc1` [Example 55, 4-[1-(2,5-Difluorobenzyl)-2-oxo-1,2,3,4-tetrahydropyrido[2,3-b]pyrazin-7-yl]benzoic acid ethyl ester] yielded an IC50 [1] of over 100 µM, an IC50 [2] of 10000 to 100000 nM and a melting point of 201 to 203 °C.

Work on `O=C(O)c1ccc(-c2cnc3c(c2)N(Cc2cc(F)ccc2F)C(=O)CN3)cc1` [Example 56, 4-[1-(2,5-Difluorobenzyl)-2-oxo-1,2,3,4-tetrahydropyrido[2,3-b]pyrazin-7-yl]benzoic acid] yielded an IC50 [1] of 10 to 100 µM, an IC50 [2] of 1000 to 10000 nM and a melting point of over 300 °C.

With `CN1CCN(C(=O)c2ccc(-c3cnc4c(c3)N(Cc3cc(F)ccc3F)C(=O)CN4)cc2)CC1` [Example 59, 1-(2,5-Difluorobenzyl)-7-[4-(4-methylpiperazine-1-carbonyl)phenyl]-3,4-dihydro-1H-pyrido[2,3-b]pyrazin-2-one] the IC50 [1] was 10 to 100 µM, the IC50 [2] was 100 to 1000 nM and the melting point was 223 °C (dec.).

In the case of `O=C(c1ccc(-c2cnc3c(c2)N(Cc2cc(F)ccc2F)C(=O)CN3)cc1)N1CCC(N2CCCC2)CC1` [Example 60, 1-(2,5-Difluorobenzyl)-7-[4-(4-(pyrrolidin-1-yl)piperidine-1-carbonyl)phenyl]-3,4-dihydro-1H-pyrido[2,3-b]pyrazin-2-one], the IC50 [1] is reported as 1 to 10 µM, the IC50 [2] is reported as 100 to 1000 nM and the melting point is reported as 186 °C (dec.).

Work on `Fc1ccc(F)c(CN2CCNc3ncc(I)cc32)c1` [Example 62, 1-(2,5-Difluorobenzyl)-7-iodo-1,2,3,4-tetrahydropyrido[2,3-b]pyrazine] yielded an IC50 [1] of 10 to 100 µM, an IC50 [2] of 1000 to 10000 nM and a melting point of 175 °C.

In the case of `CCOC(=O)c1ccc(-c2cnc3c(c2)N(Cc2cc(F)ccc2F)CCN3)cc1` [Example 63, 4-[1-(2,5-Difluorobenzyl)-1,2,3,4-tetrahydropyrido[2,3-b]pyrazin-7-yl]benzoic acid ethyl ester], the IC50 [1] is reported as over 100 µM, the IC50 [2] is reported as 100 to 1000 nM and the melting point is reported as 173 to 174 °C.

`O=C(O)c1ccc(-c2cnc3c(c2)N(Cc2cc(F)ccc2F)CCN3)cc1` [Example 64, 4-[1-(2,5-Difluorobenzyl)-1,2,3,4-tetrahydropyrido[2,3-b]pyrazin-7-yl]benzoic acid] gave an IC50 [1] of 10 to 100 µM, an IC50 [2] of 100 to 1000 nM and a melting point of over 300 °C.

Work on `CN1CCN(C(=O)c2ccc(-c3cnc4c(c3)N(Cc3cc(F)ccc3F)CCN4)cc2)CC1` [Example 67, {4-[1-(2,5-Difluorobenzyl)-1,2,3,4-tetrahydropyrido[2,3-b]pyrazin-7-yl]phenyl}-(4-methylpiperazin-1-yl)methanone] yielded an IC50 [1] of 1 to 10 µM, an IC50 [2] of 100 to 1000 nM and a melting point of 180 °C.

With `Fc1ccc(F)c(CN2CCNc3ncc(-c4ccc(N5CCOCC5)nc4)cc32)c1` [Example 70, 1-(2,5-Difluorobenzyl)-7-(6-morpholin-4-yl-pyridin-3-yl)-1,2,3,4-tetrahydropyrido[2,3-b]pyrazine] the IC50 [1] was 10 to 100 µM, the IC50 [2] was 100 to 1000 nM and the melting point was 206 to 207 °C.

With `N#Cc1ccc(-c2cnc3c(c2)N(Cc2cc(F)ccc2F)CCN3)cn1` [Example 71, 5-[1-(2,5-Difluorobenzyl)-1,2,3,4-tetrahydropyrido[2,3-b]pyrazin-7-yl]-pyridine-2-carbonitrile] the IC50 [1] was over 100 µM, the IC50 [2] was 100 to 1000 nM and the melting point was 200 °C (dec.).

Compound `CCOC(=O)c1cncc(-c2cnc3c(c2)N(Cc2cc(F)ccc2F)CCN3)c1` [Example 73, 5-[1-(2,5-Difluorobenzyl)-1,2,3,4-tetrahydropyrido[2,3-b]pyrazin-7-yl]-nicotinic acid ethyl ester] has an IC50 [1] of 10 to 100 µM, an IC50 [2] of 100 to 1000 nM and a melting point of 169 to 172 °C.

Work on `O=C(O)c1cncc(-c2cnc3c(c2)N(Cc2cc(F)ccc2F)CCN3)c1` [Example 74, 5-[1-(2,5-Difluorobenzyl)-1,2,3,4-tetrahydropyrido[2,3-b]pyrazin-7-yl]-nicotinic acid] yielded an IC50 [1] of 10 to 100 µM, an IC50 [2] of 10000 to 100000 nM and a melting point of 255 to 260 °C.

`CCOC(=O)c1cnc2c(c1)N(Cc1cc(F)ccc1F)CCN2` [Example 75, 1-(2,5-Difluorobenzyl)-1,2,3,4-tetrahydropyrido[2,3-b]pyrazine-7-carboxylic acid ethyl ester] gave an IC50 [1] of 10 to 100 µM, an IC50 [2] of 100 to 1000 nM and a melting point of 124 to 125 °C.

`N#Cc1cnc2c(c1)N(Cc1cc(F)ccc1F)CCN2` [Example 77, 1-(2,5-Difluorobenzyl)-1,2,3,4-tetrahydropyrido[2,3-b]pyrazine-7-carbonitrile] gave an IC50 [1] of over 100 µM, an IC50 [2] of 1000 to 10000 nM and a melting point of 204 to 206 °C.

In the case of `O=C(O)c1cnc2c(c1)N(Cc1cc(F)ccc1F)CCN2` [Example 78, 1-(2,5-Difluorobenzyl)-1,2,3,4-tetrahydropyrido[2,3-b]pyrazine-7-carboxylic acid], the IC50 [1] is reported as over 100 µM, the IC50 [2] is reported as over 100000 nM and the melting point is reported as 231 °C (dec.).

For `O=C1CNc2ncc(I)cc2N1Cc1cc(F)c(F)cc1F` [Example 81, 7-Iodo-1-(2,4,5-trifluorobenzyl)-3,4-dihydro-1H-pyrido[2,3-b]pyrazin-2-one], the IC50 [1] was over 100 µM, the IC50 [2] was over 100000 nM and the melting point was 227 to 228 °C.

With `Fc1cc(F)c(CN2CCNc3ncc(I)cc32)cc1F` [Example 82, 7-Iodo-1-(2,4,5-trifluorobenzyl)-1,2,3,4-tetrahydropyrido[2,3-b]pyrazine] the IC50 [1] was 10 to 100 µM, the IC50 [2] was over 100000 nM and the melting point was 154 to 156 °C.

`O=C1CNc2ncc(-c3ccc(C(=O)N4CCC[C@H]4CN4CCCC4)cc3)cc2N1Cc1cc(F)c(F)cc1F` [Example 83, 7-[4-((S)-2-[(pyrrolidin-1-yl)methyl]pyrrolidine-1-carbonyl)phenyl]-1-(2,4,5-trifluorobenzyl)-3,4-dihydro-1H-pyrido[2,3-b]pyrazin-2-one] showed an IC50 [1] of 10 to 100 µM, an IC50 [2] of 1000 to 10000 nM and a melting point of 117 to 118 °C.

`CN1CCN(C(=O)c2ccc(-c3cnc4c(c3)N(Cc3cc(F)c(F)cc3F)C(=O)CN4)cc2)CC1` [Example 85, 7-[4-(4-Methylpiperazine-1-carbonyl)phenyl]-1-(2,4,5-trifluorobenzyl)-3,4-dihydro-1H-pyrido[2,3-b]pyrazin-2-one] showed an IC50 [1] of 10 to 100 µM, an IC50 [2] of 10000 to 100000 nM and a melting point of 238 °C.

With `CN1CCN(C(=O)c2ccc(-c3cnc4c(c3)N(C(=O)c3cc(F)ccc3F)CCN4)cc2)CC1` [Example 88, (2,5-Difluorophenyl)-{7-[4-(4-methylpiperazine-1-carbonyl)phenyl]-3,4-dihydro-2H-pyrido[2,3-b]pyrazin-1-yl}-methanone] the IC50 [1] was 1 to 10 µM, the IC50 [2] was 10000 to 100000 nM and the melting point was 201 to 203 °C.

`CC1(C)Nc2ncc(I)cc2NC1=O` [Example 91, 7-Iodo-3,3-dimethyl-3,4-dihydro-1H-pyrido[2,3-b]pyrazin-2-one] gave an IC50 [1] of 10 to 100 µM, an IC50 [2] of over 100000 nM and a melting point of over 300 °C.

Compound `CC1(C)Nc2ncc(I)cc2N(Cc2cc(F)ccc2F)C1=O` [Example 92, 1-(2,5-Difluorobenzyl)-7-iodo-3,3-dimethyl-3,4-dihydro-1H-pyrido[2,3-b]pyrazin-2-one] has an IC50 [1] of over 100 µM, an IC50 [2] of over 100000 nM and a melting point of 198 to 201 °C.

Compound `CC1(C)CN(Cc2cc(F)ccc2F)c2cc(I)cnc2N1` [Example 93, 1-(2,5-Difluorobenzyl)-7-iodo-3,3-dimethyl-1,2,3,4-tetrahydropyrido[2,3-b]pyrazine] has an IC50 [1] of over 100 µM, an IC50 [2] of over 100000 nM and a melting point of 168 to 169 °C.

`CC1(C)Nc2ncc(-c3ccc(C(=O)N4CCC[C@H]4CN4CCCC4)cc3)cc2N(Cc2cc(F)ccc2F)C1=O` [Example 94, 1-(2,5-Difluorobenzyl)-3,3-dimethyl-7-[4-((S)-2-[(pyrrolidin-1-yl)methyl]pyrrolidine-1-carbonyl)phenyl]-3,4-dihydro-1H-pyrido[2,3-b]pyrazin-2-one] gave an IC50 [1] of 10 to 100 µM, an IC50 [2] of 1000 to 10000 nM and a melting point of 171 to 172 °C.

Work on `CN1CCN(C(=O)c2ccc(-c3cnc4c(c3)N(Cc3cc(F)ccc3F)C(=O)C(C)(C)N4)cc2)CC1` [Example 95, 1-(2,5-Difluorobenzyl)-3,3-dimethyl-7-[4-(4-methylpiperazine-1-carbonyl)phenyl]-3,4-dihydro-1H-pyrido[2,3-b]pyrazin-2-one] yielded an IC50 [1] of 10 to 100 µM, an IC50 [2] of 1000 to 10000 nM and a melting point of 204 to 206 °C.
